Experimental data reported in US20260234139A1, “PGDH INHIBITORS AND METHODS OF MAKING AND USING” (Epirium Bio Inc., priority 2023, published 2026).

Columns and labels:
15-PGDH/HPGD = target: T1, 15-PGDH/HPGD (Homo sapiens, UniProt P15428); experiment: hPGDH inhibitor screening biochemical assay; settings: 10 nM enzyme, 15 μM Prostaglandin E2, 0.25 mM NAD, fluorescence ex/em 340/485 nm
T1 construct: purchased R&D System 5660-DH
T1 sequence (P15428 1-266): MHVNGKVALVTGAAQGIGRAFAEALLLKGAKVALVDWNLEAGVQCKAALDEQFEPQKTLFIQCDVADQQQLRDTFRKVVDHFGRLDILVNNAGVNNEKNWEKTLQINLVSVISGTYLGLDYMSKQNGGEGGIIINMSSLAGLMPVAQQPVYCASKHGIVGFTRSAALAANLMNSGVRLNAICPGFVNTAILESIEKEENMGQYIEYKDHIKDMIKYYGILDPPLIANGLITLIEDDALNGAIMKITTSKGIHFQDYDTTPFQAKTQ
Procedure: A hydroxyprostaglandin dehydrogenase inhibition screening biochemical assay can be performed to assess the synthesized inhibitors provided herein. Provided herein is an exemplary biochemical assay for hPGDH inhibitor screening.
The in vitro biochemical assay can be performed in white, 384 plates in total 20 μl reaction volume consisting of 10 nM of 15-PGDH/HPGD (R&D System #5660-DH), 15 μM Prostaglandin E2 (Sigma, Cat #P5640-10 MG) and 0.25 mM B-Nicotinamide adenine dinucleotide sodium salt (Sigma, Cat #N0632-5G) made in reaction buffer (50 mM Tris-HCl, pH 7.5, 0.01% Tween 20) at 10-point dose response curve for test/tool compounds. Briefly, 5 μl (4×) of compounds solution and 5 μl (final concentration, 10 nM) of enzyme solution is added to white 384 well plates and incubated for 10 mins at 37° C. 5 μl (4×) of Prostaglandin E2 and 5 μl (4×) of β-Nicotinamide adenine dinucleotide sodium salt is added to the wells and incubated for 10 mins at room temperature. Fluorescence is recorded at ex/em=340 nm/485 nm.

A549 = A549 EC50 (cell assay, method not described); assay type: cell-based

CC(C)OC[C@@H](O)c1cnc2c(ccn2-c2cccc(-c3nnc[nH]3)c2)n1 [Compound 20A]
IC50 (15-PGDH/HPGD): < 0.1 µM | EC50 (A549; Homo sapiens, A549, A549): < 0.1 µM

O=C(O)c1ccc(-n2ncc3cc(C(O)C4CC(F)(F)C4)cnc32)cc1 (stereo in doubt) [Compound 45B, (S)-4-(5-((3,3-difluorocyclobutyl)(hydroxy)methyl)-1H-pyrazolo[3,4-b]pyridin-1-yl)benzoic acid]
IC50 (15-PGDH/HPGD): < 0.1 µM | EC50 (A549; Homo sapiens, A549, A549): < 0.1 µM

CC(C)(O)CC[C@@H](O)c1cnc2c(cnn2-c2cccc(-c3nnc[nH]3)c2)c1 [Compound 56B]
IC50 (15-PGDH/HPGD): < 0.1 µM | EC50 (A549; Homo sapiens, A549, A549): 0.1 to 1 µM

CC(C)NC[C@@H](O)c1cnc2c(ccn2-c2cccc(-c3nnc[nH]3)c2)n1 [Compound 22B]
IC50 (15-PGDH/HPGD): 0.1 to 1 µM | EC50 (A549; Homo sapiens, A549, A549): ≥ 1 µM

O=C(O)CCc1ccc(-n2ncc3cc([C@H](O)COC4CCCC4)cnc32)cc1F [Compound 88B]
IC50 (15-PGDH/HPGD): < 0.1 µM | EC50 (A549; Homo sapiens, A549, A549): 0.1 to 1 µM

CCOC1([C@H](O)c2cnc3c(cnn3-c3ccc4nc(N5CCOCC5)nn4c3)c2)CC1 [Compound 62A]
IC50 (15-PGDH/HPGD): ≥ 1 µM | EC50 (A549; Homo sapiens, A549, A549): ≥ 1 µM

CCCC(F)(F)[C@H](O)c1cnc2c(ccn2-c2cccc(-c3nnc[nH]3)c2)c1 [Compound 4B]
IC50 (15-PGDH/HPGD): < 0.1 µM | EC50 (A549; Homo sapiens, A549, A549): < 0.1 µM

CC(C)OCC[C@@H](O)c1cnc2c(ccn2-c2cccc(-c3nnc[nH]3)c2)c1 [Compound 41B]
IC50 (15-PGDH/HPGD): < 0.1 µM | EC50 (A549; Homo sapiens, A549, A549): < 0.1 µM

CNC(=O)c1cccc(-n2ncc3cc([C@H](O)COC4CCC4)cnc32)c1 [Compound 110B]
IC50 (15-PGDH/HPGD): ≥ 1 µM | EC50 (A549; Homo sapiens, A549, A549): ≥ 1 µM

O=C(O)c1ccc(-n2ncc3cc([C@@H](O)COCC4(C(F)(F)F)CC4)cnc32)cc1 [Compound 113A]
IC50 (15-PGDH/HPGD): 0.1 to 1 µM | EC50 (A549; Homo sapiens, A549, A549): ≥ 1 µM

CC(C)(C)OC[C@@H](O)c1cnc2c(ccn2-c2cccc(-c3nnc[nH]3)c2)n1 [Compound 26B]
IC50 (15-PGDH/HPGD): < 0.1 µM | EC50 (A549; Homo sapiens, A549, A549): < 0.1 µM

CC(C)OCC(O)c1cnc2c(cnn2-c2cccc(-c3nnc[nH]3)c2)c1 (single isomer, unassigned) [Compound 18B]
IC50 (15-PGDH/HPGD): < 0.1 µM | EC50 (A549; Homo sapiens, A549, A549): 0.1 to 1 µM

CCOC(C)(C)C(O)c1cnc2c(cnn2-c2cccc(-c3nnc[nH]3)c2)c1 (single isomer, unassigned) [Compound 34A]
IC50 (15-PGDH/HPGD): < 0.1 µM | EC50 (A549; A549): < 0.1 µM

CC(C)(C)OC[C@@H](O)c1cnc2c(ccn2-c2cccc(-c3nnc[nH]3)c2)c1 [Compound 31B]
IC50 (15-PGDH/HPGD): < 0.1 µM | EC50 (A549; Homo sapiens, A549, A549): < 0.1 µM

O=C(O)c1ccc(-n2ccc3nc([C@@H](O)C4CC(F)(F)C4)cnc32)cc1 [Compound 46B]
IC50 (15-PGDH/HPGD): < 0.1 µM | EC50 (A549; Homo sapiens, A549, A549): 0.1 to 1 µM

CCC1(OC[C@@H](O)c2cnc3c(cnn3-c3ccc(C(=O)O)cc3)c2)CC1 [Compound 93B]
IC50 (15-PGDH/HPGD): < 0.1 µM | EC50 (A549; Homo sapiens, A549, A549): < 0.1 µM

CNC(=O)c1cccc(-n2ncc3cc([C@@H](O)COC4CCC4)cnc32)c1 [Compound 110A]
IC50 (15-PGDH/HPGD): < 0.1 µM | EC50 (A549; Homo sapiens, A549, A549): < 0.1 µM

O[C@@H](COC1CCC1)c1cnc2c(ccn2-c2cccc(-c3nnc[nH]3)c2)n1 [Compound 30B]
IC50 (15-PGDH/HPGD): < 0.1 µM | EC50 (A549; Homo sapiens, A549, A549): < 0.1 µM

CN(C)C(=O)c1ccc(-n2ncc3cc([C@H](O)COC4CCC4)cnc32)cc1 [Compound 80A]
IC50 (15-PGDH/HPGD): < 0.1 µM | EC50 (A549; Homo sapiens, A549, A549): < 0.1 µM

O[C@H](COC1CCC1)c1cnc2c(cnn2-c2cccc(-c3nnc[nH]3)c2)c1 [Compound 24B]
IC50 (15-PGDH/HPGD): < 0.1 µM | EC50 (A549; Homo sapiens, A549, A549): < 0.1 µM

O=C(O)c1ccc(-n2ncc3cc([C@H](O)COCC4CC4)cnc32)cc1 [Compound 107B]
IC50 (15-PGDH/HPGD): < 0.1 µM | EC50 (A549; Homo sapiens, A549, A549): ≥ 1 µM

CCOC1([C@H](O)c2cnc3c(cnn3-c3cccc(-c4nnc[nH]4)c3)c2)CCC1 [Compound 83A]
IC50 (15-PGDH/HPGD): 0.1 to 1 µM | EC50 (A549; Homo sapiens, A549, A549): 0.1 to 1 µM

CCCC[C@H](O)c1cnc2c(ccn2-c2cccc(-c3nnc[nH]3)c2)n1 [Compound 2A]
IC50 (15-PGDH/HPGD): < 0.1 µM | EC50 (A549; Homo sapiens, A549, A549): < 0.1 µM

COC(C)(C)C[C@@H](O)c1cnc2c(ccn2-c2cccc(-c3nnc[nH]3)c2)c1 [Compound 54A]
IC50 (15-PGDH/HPGD): < 0.1 µM | EC50 (A549; Homo sapiens, A549, A549): < 0.1 µM

COC1([C@H](O)c2cnc3c(cnn3-c3cccc(-c4nnc[nH]4)c3)c2)CC1 [Compound 59B]
IC50 (15-PGDH/HPGD): 0.1 to 1 µM | EC50 (A549; Homo sapiens, A549, A549): ≥ 1 µM

O[C@@H](c1cnc2c(cnn2-c2cccc(-c3nnc[nH]3)c2)c1)[C@H]1CCOC1 [Compound 68C]
IC50 (15-PGDH/HPGD): < 0.1 µM | EC50 (A549; Homo sapiens, A549, A549): < 0.1 µM

O=C(O)c1ccc(-n2ccc3nc([C@H](O)C4CC(F)(F)C4)cnc32)cc1 [Compound 46A]
IC50 (15-PGDH/HPGD): < 0.1 µM | EC50 (A549; Homo sapiens, A549, A549): < 0.1 µM
